Laboratory results as given in US12077503B2, “Substituted cyclic amides and their use as herbicides” (FMC CORPORATION, priority 2015, dated 2024).

How the values were obtained:
Type in all cases: in vivo
[1] = system: blackgrass (Alopecurus myosuroides); test: Test A postemergence
In short: (§1)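 Seeded soil received test chemicals as a preemergence directed spray, and seedlings at one to two leaves, 2–10 cm tall, received them postemergence, in a non-phytotoxic, surfactant-containing solvent mixture. Pots were held in a greenhouse for approximately 10 d, then rated for injury from 0, no effect, to 100, complete control.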

[2] = system: pigweed (Amaranthus retroflexus); test: Test A postemergence
In short: as §1

[3] = system: wheat (Triticum aestivum); test: Test A postemergence
In short: as §1

[4] = system: Kochia (Kochia scoparia); test: Test A postemergence
In short: as §1

[5] = system: corn (Zea mays); test: Test A postemergence
In short: as §1

[6] = system: ragweed (common ragweed, Ambrosia elatior); test: Test A postemergence
In short: as §1

[7] = system: ryegrass, Italian (Italian ryegrass, Lolium multiflorum); test: Test A postemergence
In short: as §1

[8] = system: barnyardgrass (Echinochloa crus-galli); test: Test A postemergence
In short: as §1

[9] = system: giant foxtail (Setaria faberii); test: Test A postemergence
In short: as §1

[10] = system: Galium (catchweed bedstraw, Galium aparine); test: Test A postemergence
In short: as §1

[11] = system: sedge, umbrella (small-flower umbrella sedge, Cyperus difformis); test: Test B flooded paddy test; settings: Flood, 250 g ai/ha; 0 to 100 scale where 0 is no effect and 100 is complete control; 13 to 15 d
In short: (§2)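 2-leaf plants; pots flooded 3 cm over soil; cpd added to paddy water; depth held; greenhouse 13–15 d; visual rating vs controls, 0 = no effect, 100 = complete control.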

[12] = system: ducksalad (Heteranthera limosa); test: Test B flooded paddy test; settings: Flood, 250 g ai/ha; 0 to 100 scale where 0 is no effect and 100 is complete control; 13 to 15 d
In short: as §2

[13] = system: barnyardgrass (Echinochloa crus-galli); test: Test B flooded paddy test; settings: Flood, 250 g ai/ha; 0 to 100 scale where 0 is no effect and 100 is complete control; 13 to 15 d
In short: as §2

[14] = system: rice (Oryra sativa); test: Test B flooded paddy test; settings: Flood, 250 g ai/ha; 0 to 100 scale where 0 is no effect and 100 is complete control; 13 to 15 d
In short: as §2

[15] = system: pigweed (Amaranthus retroflexus); test: Test A preemergence; settings: for Plant response rating, Pigweed: 125 g ai/ha; for Pigweed plant response rating (0 to 100 scale, 0 is no effect, 100 is complete control): visual injury approx. 10 d
[16] = system: Kochia (Kochia scoparia); test: Test A preemergence; settings: for Plant response rating, Kochia: 125 g ai/ha; for Kochia plant response rating (0 to 100 scale, 0 is no effect, 100 is complete control): visual injury approx. 10 d
In short: as §1

[17] = system: ragweed (common ragweed, Ambrosia elatior); test: Test A preemergence; settings: for Plant response rating, Ragweed: 125 g ai/ha; for Ragweed plant response rating (0 to 100 scale, 0 is no effect, 100 is complete control): visual injury approx. 10 d
In short: as §1

[18] = system: ryegrass, Italian (Italian ryegrass, Lolium multiflorum); test: Test A preemergence; settings: for Plant response rating, Ryegrass, Italian: 125 g ai/ha; for Ryegrass, Italian plant response rating (0 to 100 scale, 0 is no effect, 100 is complete control): visual injury approx. 10 d
In short: as §1

[19] = system: barnyardgrass (Echinochloa crus-galli); test: Test A preemergence; settings: for Plant response rating, Barnyardgrass: 125 g ai/ha; for Barnyardgrass plant response rating (0 to 100 scale, 0 is no effect, 100 is complete control): visual injury approx. 10 d
In short: as §1

[20] = system: giant foxtail (Setaria faberii); test: Test A preemergence; settings: for Plant response rating, Foxtail, Giant: 125 g ai/ha; for Foxtail, Giant plant response rating (0 to 100 scale, 0 is no effect, 100 is complete control): visual injury approx. 10 d
In short: as §1

[21] = 125 g ai/ha, postemergence, visual rating after approx. 10 d, 0 to 100 scale (0 no effect, 100 complete control)
[22] = Postemergence, 500 g ai/ha, 0 to 100 scale where 0 is no effect and 100 is complete control
[23] = Preemergence, visual injury after approximately 10 d, 0 to 100 scale where 0 is no effect and 100 is complete control
[24] = 500 g ai/ha, postemergence, 0 to 100 scale, 0 no effect, 100 complete control
[25] = Postemergence, 125 g ai/ha, visual injury, 0 to 100 scale (0 no effect, 100 complete control), approx. 10 d
[26] = preemergence, 0 to 100 scale (0 no effect, 100 complete control)
[27] = Preemergence, 500 g ai/ha, 0 is no effect, 100 is complete control
[28] = 125 g ai/ha, postemergence, visual injury rating on 0 to 100 scale (0 no effect, 100 complete control), approx. 10 d

C=CCN1CC(c2cccc(C(F)(F)F)c2)C(C(=O)Nc2ccccc2F)C1=O (stereo not drawn) [Compound 605]
90: Plant response rating, Foxtail, Giant [20, 23] | Foxtail, Giant plant response rating (0 to 100 scale, 0 is no effect, 100 is complete control) ([20]; Preemergence, 500 g ai/ha)
20: Plant response rating, Blackgrass [1, 22] | Plant response rating, Foxtail, Giant [9, 21] | Ryegrass, Italian plant response rating (0 to 100 scale, 0 is no effect, 100 is complete control) ([18]; Preemergence, 500 g ai/ha)
50: Plant response rating, Ducksalad [12]
0: Plant response rating, Blackgrass [1, 21] | Plant response rating, Pigweed [2, 21] | Plant response rating, Pigweed [2, 22] | Plant response rating, Wheat [3, 21] | Plant response rating, Kochia [4, 21] | Plant response rating, Kochia [4, 22] | Plant response rating, Corn [5, 21] | Plant response rating, Corn [5, 22] | Plant response rating, Ragweed [6, 21] | Plant response rating, Ragweed [6, 22] | Plant response rating, Ryegrass, Italian [7, 21] | Plant response rating, Ryegrass, Italian [7, 22] | Plant response rating, Barnyardgrass [8, 21] | Plant response rating, Galium [10, 21] | Plant response rating, Galium [10, 22] | Plant response rating, Sedge, Umbrella [11] | Plant response rating, Barnyardgrass [13] | Plant response rating, Rice [14] | Plant response rating, Pigweed [15, 23] | Pigweed plant response rating (0 to 100 scale, 0 is no effect, 100 is complete control) ([15]; Preemergence, 500 g ai/ha) | Plant response rating, Kochia [16, 23] | Kochia plant response rating (0 to 100 scale, 0 is no effect, 100 is complete control) ([16]; Preemergence, 500 g ai/ha) | Plant response rating, Ragweed [17, 23] | Ragweed plant response rating (0 to 100 scale, 0 is no effect, 100 is complete control) ([17]; Preemergence, 500 g ai/ha) | Plant response rating, Ryegrass, Italian [18, 23]
80: Plant response rating, Barnyardgrass [8, 22] | Plant response rating, Foxtail, Giant [9, 22]
70: Barnyardgrass plant response rating (0 to 100 scale, 0 is no effect, 100 is complete control) ([19]; Preemergence, 500 g ai/ha)
30: Plant response rating, Wheat [3, 22] | Plant response rating, Barnyardgrass [19, 23]

CC(C)Oc1cccc(C2CN(C)C(=O)C2C(=O)Nc2ccc(F)cc2F)c1 (stereo not drawn) [Compound 378]
70: Plant response rating, Blackgrass [1, 24] | Plant response rating, Kochia [4, 24] | Plant response rating, Ryegrass, Italian [7, 24] | Plant response rating, Galium [10, 24] | Plant response rating, Barnyardgrass [13]
40: Plant response rating, Wheat [3, 25] | Plant response rating, Ryegrass, Italian [7, 25]
50: Plant response rating, Blackgrass [1, 25] | Plant response rating, Pigweed [2, 24] | Plant response rating, Wheat [3, 24] | Plant response rating, Kochia [4, 25] | Plant response rating, Corn [5, 25] | Plant response rating, Ragweed [6, 24] | Ragweed plant response rating (0 to 100 scale) [17, 27] | Plant response rating, Ryegrass, Italian [18, 26]
0: Plant response rating, Pigweed [2, 25] | Plant response rating, Sedge, Umbrella [11] | Plant response rating, Rice [14]
10: Plant response rating, Ragweed [17, 26]
100: Foxtail, Giant plant response rating (0 to 100 scale) [20, 27]
60: Plant response rating, Galium [10, 25] | Plant response rating, Pigweed [15, 26]
30: Plant response rating, Ducksalad [12]
90: Plant response rating, Barnyardgrass [8, 24] | Kochia plant response rating (0 to 100 scale) [16, 27] | Barnyardgrass plant response rating (0 to 100 scale) [19, 27] | Plant response rating, Foxtail, Giant [20, 26]
80: Plant response rating, Corn [5, 24] | Plant response rating, Barnyardgrass [8, 25] | Plant response rating, Foxtail, Giant [9, 24] | Plant response rating, Foxtail, Giant [9, 25] | Pigweed plant response rating (0 to 100 scale) [15, 27] | Plant response rating, Kochia [16, 26] | Ryegrass, Italian plant response rating (0 to 100 scale) [18, 27]
20: Plant response rating, Ragweed [6, 25] | Plant response rating, Barnyardgrass [19, 26]

O=C1NCC(c2ccnc(C(F)(F)F)c2)C1C(=O)Nc1ccccc1F (racemic) [Compound 513]
20: Blackgrass plant response rating [1, 28] | Kochia plant response rating [4, 28] | Corn plant response rating [5, 28] | Plant response rating, Ragweed [6, 22] | Kochia plant response rating (0 to 100 scale, 0 is no effect, 100 is complete control) ([16]; Preemergence, 500 g ai/ha) | Plant response rating, Ryegrass, Italian [18, 23]
0: Wheat plant response rating [3, 28] | Ryegrass, Italian plant response rating [7, 28] | Galium plant response rating [10, 28] | Plant response rating, Sedge, Umbrella [11] | Plant response rating, Pigweed [15, 23] | Pigweed plant response rating (0 to 100 scale, 0 is no effect, 100 is complete control) ([15]; Preemergence, 500 g ai/ha) | Plant response rating, Kochia [16, 23] | Plant response rating, Ragweed [17, 23] | Ragweed plant response rating (0 to 100 scale, 0 is no effect, 100 is complete control) ([17]; Preemergence, 500 g ai/ha)
40: Plant response rating, Blackgrass [1, 22] | Plant response rating, Galium [10, 22] | Plant response rating, Barnyardgrass [19, 23]
80: Barnyardgrass plant response rating [8, 28] | Foxtail, Giant plant response rating [9, 28] | Plant response rating, Foxtail, Giant [9, 22]
10: Ragweed plant response rating [6, 28]
30: Pigweed plant response rating [2, 28] | Plant response rating, Wheat [3, 22] | Plant response rating, Ryegrass, Italian [7, 22] | Plant response rating, Barnyardgrass [13] | Plant response rating, Rice [14] | Ryegrass, Italian plant response rating (0 to 100 scale, 0 is no effect, 100 is complete control) ([18]; Preemergence, 500 g ai/ha)
60: Plant response rating, Pigweed [2, 22] | Plant response rating, Corn [5, 22]
50: Plant response rating, Kochia [4, 22]
90: Plant response rating, Barnyardgrass [8, 22] | Plant response rating, Ducksalad [12] | Barnyardgrass plant response rating (0 to 100 scale, 0 is no effect, 100 is complete control) ([19]; Preemergence, 500 g ai/ha) | Plant response rating, Foxtail, Giant [20, 23] | Foxtail, Giant plant response rating (0 to 100 scale, 0 is no effect, 100 is complete control) ([20]; Preemergence, 500 g ai/ha)
